Assay results reported in patent US20120172384A1, “HETEROCYCLYLAMINOPYRIMIDINES AS KINASE INHIBITORS” (priority 2009, published 2012).
Values joined by “and” are separate entries in the source; they are usually repeats but may differ in a detail not shown here. Identical values can stand only once.

Columns and labels:
rheumatoid arthritis [1] = conditions: animal model of rheumatoid arthritis (Pine et al., 2007); cited from earlier work
rheumatoid arthritis [2] = conditions: rheumatoid arthritis (Weinblatt et al., 2008); cited from earlier work
organ transplantation = conditions: Changelian et al., 2003; cited from earlier work
ZAP-70 = biological target: T1, ZAP-70 (Homo sapiens, UniProt P43403); test: ZAP-70 kinobeads assay; type: binding; conditions: cell lysate, dot blot with ZAP-70 antibody
T1 construct: endogenous in cells
T1 sequence (P43403 1-619): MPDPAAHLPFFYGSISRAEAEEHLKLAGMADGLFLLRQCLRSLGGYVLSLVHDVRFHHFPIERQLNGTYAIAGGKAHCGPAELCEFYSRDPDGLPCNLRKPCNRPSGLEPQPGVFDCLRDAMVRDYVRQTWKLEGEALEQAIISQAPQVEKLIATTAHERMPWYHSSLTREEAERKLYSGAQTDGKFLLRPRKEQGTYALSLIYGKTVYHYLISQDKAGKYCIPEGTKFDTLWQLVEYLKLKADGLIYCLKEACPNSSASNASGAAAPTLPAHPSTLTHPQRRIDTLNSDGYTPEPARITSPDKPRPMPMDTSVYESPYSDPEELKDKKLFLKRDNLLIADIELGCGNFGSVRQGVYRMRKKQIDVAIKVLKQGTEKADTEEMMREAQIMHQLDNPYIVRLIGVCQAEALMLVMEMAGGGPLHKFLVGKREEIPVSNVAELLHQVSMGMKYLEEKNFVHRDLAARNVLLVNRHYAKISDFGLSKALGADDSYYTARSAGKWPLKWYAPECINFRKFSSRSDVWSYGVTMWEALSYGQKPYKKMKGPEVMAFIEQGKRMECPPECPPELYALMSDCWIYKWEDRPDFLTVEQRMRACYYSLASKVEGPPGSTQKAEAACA
Protocol: The compounds of the present invention as described in the previous examples were tested in the ZAP-70 kinobeads assay as described (EP-A 1862802 and WO-A 2007/137867). Briefly, test compounds (at various concentrations) and the affinity matrix with the immobilized aminopyrido-pyrimidine ligand 24 are added to cell lysate aliquots and allowed to bind to the proteins in the lysate sample. After the incubation time the beads with captured proteins are separated from the lysate. Bound proteins are then eluted and the presence ZAP-70 is detected and quantified using a specific antibody in a dot blot procedure and the Odyssey infrared detection system.

JAK3 = biological target: T2, JAK3 (Homo sapiens, UniProt P52333); test: JAK3 kinobeads assay; type: binding; conditions: cell lysate, dot blot with JAK3 specific antibody
T2 construct: endogenous in cells
T2 sequence (P52333 1-1124): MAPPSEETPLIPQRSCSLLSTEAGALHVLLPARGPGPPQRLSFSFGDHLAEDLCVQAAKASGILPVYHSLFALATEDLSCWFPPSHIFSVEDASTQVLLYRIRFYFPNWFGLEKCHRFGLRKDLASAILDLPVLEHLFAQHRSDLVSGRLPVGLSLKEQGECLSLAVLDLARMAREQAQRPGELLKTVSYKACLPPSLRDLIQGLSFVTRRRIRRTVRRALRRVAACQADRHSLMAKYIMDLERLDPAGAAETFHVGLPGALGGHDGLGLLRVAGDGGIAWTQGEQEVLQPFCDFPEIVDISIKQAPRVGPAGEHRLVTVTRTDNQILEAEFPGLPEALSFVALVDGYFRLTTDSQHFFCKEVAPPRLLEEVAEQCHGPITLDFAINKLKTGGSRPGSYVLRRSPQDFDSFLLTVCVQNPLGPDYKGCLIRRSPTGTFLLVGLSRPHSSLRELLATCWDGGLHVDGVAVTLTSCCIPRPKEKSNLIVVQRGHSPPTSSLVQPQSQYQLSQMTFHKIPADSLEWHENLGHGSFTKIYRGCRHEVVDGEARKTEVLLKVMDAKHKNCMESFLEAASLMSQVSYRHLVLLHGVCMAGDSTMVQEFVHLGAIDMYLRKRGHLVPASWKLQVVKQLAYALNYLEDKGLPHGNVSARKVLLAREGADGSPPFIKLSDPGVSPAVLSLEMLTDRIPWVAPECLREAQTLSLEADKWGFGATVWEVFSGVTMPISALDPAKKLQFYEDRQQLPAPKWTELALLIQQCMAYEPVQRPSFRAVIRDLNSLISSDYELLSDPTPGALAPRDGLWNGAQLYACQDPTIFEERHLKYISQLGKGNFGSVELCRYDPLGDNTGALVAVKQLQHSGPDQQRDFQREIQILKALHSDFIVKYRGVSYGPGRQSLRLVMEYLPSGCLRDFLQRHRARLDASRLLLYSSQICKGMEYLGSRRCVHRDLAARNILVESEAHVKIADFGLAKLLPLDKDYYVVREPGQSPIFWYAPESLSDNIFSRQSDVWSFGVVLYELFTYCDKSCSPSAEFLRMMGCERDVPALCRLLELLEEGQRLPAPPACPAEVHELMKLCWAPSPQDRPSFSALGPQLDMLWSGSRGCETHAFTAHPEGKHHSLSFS
Summary of the method: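 In this competition pulldown, test compounds at various concentrations were incubated in cell lysate together with beads carrying an immobilized aminopyrido-pyrimidine ligand. Bead-bound proteins were eluted, and JAK3 was quantified by dot blot with a JAK3-specific antibody and infrared detection.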

IC50 (ZAP-70)	IC50 (JAK3)	SMILES	also measured
–	–	COc1cc(Nc2ncc(F)c(Nc3ccc4c(n3)NC(=O)C(C)(C)O4)n2)cc(OC)c1OC [Example R406]	inflammation and bone erosion (rheumatoid arthritis [1]): suppresses inflammation and bone erosion
–	–	COc1cc(Nc2ncc(F)c(Nc3ccc4c(n3)N(COP(=O)(O)O)C(=O)C(C)(C)O4)n2)cc(OC)c1OC [Example R788]	efficacy in clinical study (rheumatoid arthritis [2]): demonstrated efficacy
–	–	C[C@@H]1CCN(C(=O)CC#N)C[C@@H]1N(C)c1ncnc2[nH]ccc12 [CP-690,550]	efficacy in animal model of organ transplantation (organ transplantation): show efficacy
≤ 100 nM	100 to 1000 nM	CCn1ncc(Nc2ncc(Cl)c(Nc3ccc(OC)cc3NS(C)(=O)=O)n2)c1C [Example 77, N-(2-((5-chloro-2-((1-ethyl-5-methyl-1H-pyrazol-4-yl)amino)pyrimidin-4-yl)amino)-5-methoxyphenyl)methanesulfonamide]	–
100 to 1000 nM	≤ 100 nM	CS(=O)(=O)Nc1ccccc1Nc1nc(Nc2cn[nH]c2)ncc1F [Example 23, N-(2-(2-(1H-pyrazol-4-ylamino)-5-fluoropyrimidin-4-ylamino)phenyl)methanesulfonamide]	–
≤ 100 nM	≤ 100 nM	COc1ccc(Nc2nc(Nc3cn(C)nc3C)ncc2Cl)c(NS(C)(=O)=O)c1 [Example 18, N-(2-(5-chloro-2-(1,3-dimethyl-1H-pyrazol-4-ylamino)pyrimidin-4-ylamino)-5-methoxyphenyl)methanesulfonamide]	–
100 to 1000 nM	≤ 100 nM	Cn1ccc(Nc2ncc(Br)c(Nc3ccccc3NS(C)(=O)=O)n2)n1 [Example 43, N-(2-((5-bromo-2-((1-methyl-1H-pyrazol-3-yl)amino)pyrimidin-4-yl)amino)phenyl)methanesulfonamide]	–
≤ 100 nM	100 to 1000 nM	COc1ccc(Nc2nc(Nc3ccnn3C)ncc2Cl)c(NS(C)(=O)=O)c1 [Example 5, N-(2-(5-chloro-2-(1-methyl-1H-pyrazol-5-ylamino)pyrimidin-4-ylamino)-5-methoxyphenyl)methanesulfonamide]	–
100 to 1000 nM	≤ 100 nM	CCn1ccc(Nc2ncc(Cl)c(Nc3ccccc3NS(C)(=O)=O)n2)n1 [Example 42, N-(2-(5-chloro-2-(1-ethyl-1H-pyrazol-3-ylamino)pyrimidin-4-ylamino)phenyl)methanesulfonamide]	–
≤ 100 nM	100 to 1000 nM	CCn1nc(C)cc1Nc1ncc(Cl)c(Nc2ccc(OC)cc2NS(C)(=O)=O)n1 [Example 12, N-(2-(5-chloro-2-(1-ethyl-3-methyl-1H-pyrazol-5-ylamino)pyrimidin-4-ylamino)-5-methoxyphenyl)methanesulfonamide]	–
100 to 1000 nM	100 to 1000 nM and ≤ 100 nM	COc1ccc(Nc2nc(Nc3ccn(C)n3)ncc2Cl)c(NS(C)(=O)=O)c1 [Example 4, N-(2-(5-chloro-2-(1-methyl-1H-pyrazol-3-ylamino)pyrimidin-4-ylamino)-5-methoxyphenyl)methanesulfonamide]	–
